Converted amounts (≈) assume the structure as drawn.
Columns and labels:
Assay type in all cases: functional
Rhizoctonia solani [1] = assay: Antifungal activity against Rhizoctonia solani at 100 ug/ml after 72 hrs by agar well diffusion method
Staphylococcus aureus [2] = assay: Antibacterial activity against Staphylococcus aureus ATCC 6538 at 50 ug/ml after 24 hrs by agar well diffusion method; conditions: ATCC 6538, 24 h, read-out: DIZ
Staphylococcus aureus [3] = assay: Antibacterial activity against Staphylococcus aureus ATCC 6538 at 200 ug/ml after 24 hrs by agar well diffusion method; conditions: ATCC 6538, 24 h, read-out: DIZ
Escherichia coli [4] = assay: Antibacterial activity against Escherichia coli ATCC 8739 at 200 ug/ml after 24 hrs by agar well diffusion method; conditions: ATCC 8739, 24 h, read-out: DIZ
Klebsiella pneumoniae [5] = assay: Antibacterial activity against Klebsiella pneumoniae at 100 ug/ml after 24 hrs by agar well diffusion method; conditions: read-out: DIZ
Bacillus subtilis [6] = assay: Antibacterial activity against Bacillus subtilis at 500 ug/ml after 24 hrs by agar well diffusion method; conditions: read-out: DIZ
Staphylococcus aureus [7] = assay: Antibacterial activity against Staphylococcus aureus ATCC 6538 at 300 ug/ml after 24 hrs by agar well diffusion method; conditions: ATCC 6538, 24 h, read-out: DIZ
Rhizoctonia solani [8] = assay: Antifungal activity against Rhizoctonia solani after 72 hrs by agar well diffusion method
Aspergillus flavus [9] = assay: Antifungal activity against Aspergillus flavus at 200 ug/ml after 72 hrs by agar well diffusion method
Bacillus subtilis [10] = assay: Antibacterial activity against Bacillus subtilis at 50 ug/ml after 24 hrs by agar well diffusion method; conditions: read-out: DIZ
Staphylococcus aureus [11] = assay: Antibacterial activity against Staphylococcus aureus ATCC 6538 at 500 ug/ml after 24 hrs by agar well diffusion method; conditions: ATCC 6538, 24 h, read-out: DIZ
Aspergillus niger [12] = assay: Antifungal activity against Aspergillus niger after 72 hrs by agar well diffusion method
Rhizoctonia solani [13] = assay: Antifungal activity against Rhizoctonia solani at 500 ug/ml after 72 hrs by agar well diffusion method
Aspergillus flavus [14] = assay: Antifungal activity against Aspergillus flavus at 500 ug/ml after 72 hrs by agar well diffusion method
Bacillus subtilis [15] = assay: Antibacterial activity against Bacillus subtilis at 100 ug/ml after 24 hrs by agar well diffusion method; conditions: read-out: DIZ
Fusarium oxysporum [16] = assay: Antifungal activity against Fusarium oxysporum after 72 hrs by agar well diffusion method
Fusarium oxysporum [17] = assay: Antifungal activity against Fusarium oxysporum at 100 ug/ml after 72 hrs by agar well diffusion method
Escherichia coli [18] = assay: Antibacterial activity against Escherichia coli ATCC 8739 at 300 ug/ml after 24 hrs by agar well diffusion method; conditions: ATCC 8739, 24 h, read-out: DIZ
Aspergillus flavus [19] = assay: Antifungal activity against Aspergillus flavus at 50 ug/ml after 72 hrs by agar well diffusion method
Aspergillus niger [20] = assay: Antifungal activity against Aspergillus niger at 300 ug/ml after 72 hrs by agar well diffusion method
Klebsiella pneumoniae [21] = assay: Antibacterial activity against Klebsiella pneumoniae after 24 hrs by agar well diffusion method
Escherichia coli [22] = assay: Antibacterial activity against Escherichia coli ATCC 8739 at 50 ug/ml after 24 hrs by agar well diffusion method; conditions: ATCC 8739, 24 h, read-out: DIZ
Escherichia coli [23] = assay: Antibacterial activity against Escherichia coli ATCC 8739 at 100 ug/ml after 24 hrs by agar well diffusion method; conditions: ATCC 8739, 24 h, read-out: DIZ
Bacillus subtilis [24] = assay: Antibacterial activity against Bacillus subtilis at 300 ug/ml after 24 hrs by agar well diffusion method; conditions: read-out: DIZ
Fusarium oxysporum [25] = assay: Antifungal activity against Fusarium oxysporum at 200 ug/ml after 72 hrs by agar well diffusion method
Aspergillus niger [26] = assay: Antifungal activity against Aspergillus niger at 100 ug/ml after 72 hrs by agar well diffusion method
Aspergillus niger [27] = assay: Antifungal activity against Aspergillus niger at 50 ug/ml after 72 hrs by agar well diffusion method
Fusarium oxysporum [28] = assay: Antifungal activity against Fusarium oxysporum at 300 ug/ml after 72 hrs by agar well diffusion method
Fusarium oxysporum [29] = assay: Antifungal activity against Fusarium oxysporum at 50 ug/ml after 72 hrs by agar well diffusion method
Klebsiella pneumoniae [30] = assay: Antibacterial activity against Klebsiella pneumoniae at 50 ug/ml after 24 hrs by agar well diffusion method; conditions: read-out: DIZ
Aspergillus niger [31] = assay: Antifungal activity against Aspergillus niger at 200 ug/ml after 72 hrs by agar well diffusion method
Rhizoctonia solani [32] = assay: Antifungal activity against Rhizoctonia solani at 300 ug/ml after 72 hrs by agar well diffusion method
Aspergillus niger [33] = assay: Antifungal activity against Aspergillus niger at 500 ug/ml after 72 hrs by agar well diffusion method
Aspergillus flavus [34] = assay: Antifungal activity against Aspergillus flavus after 72 hrs by agar well diffusion method
Bacillus subtilis [35] = assay: Antibacterial activity against Bacillus subtilis after 24 hrs by agar well diffusion method
Aspergillus flavus [36] = assay: Antifungal activity against Aspergillus flavus at 300 ug/ml after 72 hrs by agar well diffusion method
Klebsiella pneumoniae [37] = assay: Antibacterial activity against Klebsiella pneumoniae at 300 ug/ml after 24 hrs by agar well diffusion method; conditions: read-out: DIZ
Staphylococcus aureus [38] = assay: Antibacterial activity against Staphylococcus aureus ATCC 6538 at 100 ug/ml after 24 hrs by agar well diffusion method; conditions: ATCC 6538, 24 h, read-out: DIZ
Rhizoctonia solani [39] = assay: Antifungal activity against Rhizoctonia solani at 200 ug/ml after 72 hrs by agar well diffusion method
Klebsiella pneumoniae [40] = assay: Antibacterial activity against Klebsiella pneumoniae at 200 ug/ml after 24 hrs by agar well diffusion method; conditions: read-out: DIZ
Klebsiella pneumoniae [41] = assay: Antibacterial activity against Klebsiella pneumoniae at 500 ug/ml after 24 hrs by agar well diffusion method; conditions: read-out: DIZ
Bacillus subtilis [42] = assay: Antibacterial activity against Bacillus subtilis at 200 ug/ml after 24 hrs by agar well diffusion method; conditions: read-out: DIZ
Escherichia coli [43] = assay: Antibacterial activity against Escherichia coli ATCC 8739 after 24 hrs by agar well diffusion method; conditions: ATCC 8739, 24 h
Aspergillus flavus [44] = assay: Antifungal activity against Aspergillus flavus at 100 ug/ml after 72 hrs by agar well diffusion method
Staphylococcus aureus [45] = assay: Antibacterial activity against Staphylococcus aureus ATCC 6538 after 24 hrs by agar well diffusion method; conditions: ATCC 6538, 24 h
Rhizoctonia solani [46] = assay: Antifungal activity against Rhizoctonia solani at 50 ug/ml after 72 hrs by agar well diffusion method
Fusarium oxysporum [47] = assay: Antifungal activity against Fusarium oxysporum at 500 ug/ml after 72 hrs by agar well diffusion method
Escherichia coli [48] = assay: Antibacterial activity against Escherichia coli ATCC 8739 at 500 ug/ml after 24 hrs by agar well diffusion method; conditions: ATCC 8739, 24 h, read-out: DIZ

Cn1cc(C=C2C(=O)OC(C)(C)OC2=O)c2cc(Br)ccc21
zone of inhibition at 100 µg/mL (Rhizoctonia solani [1]; read-out: DIZ): 12 mm
zone of inhibition at 50 µg/mL (Staphylococcus aureus [2]): 6 mm
zone of inhibition at 200 µg/mL (Staphylococcus aureus [3]): 13 mm
zone of inhibition at 200 µg/mL (Escherichia coli [4]): 14 mm
zone of inhibition at 100 µg/mL (Klebsiella pneumoniae [5]): 14 mm
zone of inhibition at 500 µg/mL (Bacillus subtilis [6]): 23 mm
zone of inhibition at 300 µg/mL (Staphylococcus aureus [7]): 17 mm
MIC (Rhizoctonia solani [8]): 35 µg/mL (≈ 96.1 µM)
zone of inhibition at 200 µg/mL (Aspergillus flavus [9]; read-out: DIZ): 12 mm
zone of inhibition at 50 µg/mL (Bacillus subtilis [10]): 5 mm
zone of inhibition at 500 µg/mL (Staphylococcus aureus [11]): 25 mm
MIC (Aspergillus niger [12]): 40 µg/mL (≈ 110 µM)
zone of inhibition at 500 µg/mL (Rhizoctonia solani [13]; read-out: DIZ): 29 mm
zone of inhibition at 500 µg/mL (Aspergillus flavus [14]; read-out: DIZ): 23 mm
zone of inhibition at 100 µg/mL (Bacillus subtilis [15]): 9.5 mm
MIC (Fusarium oxysporum [16]): 35 µg/mL (≈ 96.1 µM)
zone of inhibition at 100 µg/mL (Fusarium oxysporum [17]; read-out: DIZ): 12 mm
zone of inhibition at 300 µg/mL (Escherichia coli [18]): 21 mm
zone of inhibition at 50 µg/mL (Aspergillus flavus [19]; read-out: DIZ): 4 mm
zone of inhibition at 300 µg/mL (Aspergillus niger [20]; read-out: DIZ): 18 mm
MIC (Klebsiella pneumoniae [21]): 15 µg/mL (≈ 41.2 µM)
zone of inhibition at 50 µg/mL (Escherichia coli [22]): 8.4 mm
zone of inhibition at 100 µg/mL (Escherichia coli [23]): 13.5 mm
zone of inhibition at 300 µg/mL (Bacillus subtilis [24]): 15 mm
zone of inhibition at 200 µg/mL (Fusarium oxysporum [25]; read-out: DIZ): 16 mm
zone of inhibition at 100 µg/mL (Aspergillus niger [26]; read-out: DIZ): 10 mm
zone of inhibition at 50 µg/mL (Aspergillus niger [27]; read-out: DIZ): 6 mm
zone of inhibition at 300 µg/mL (Fusarium oxysporum [28]; read-out: DIZ): 21 mm
zone of inhibition at 50 µg/mL (Fusarium oxysporum [29]; read-out: DIZ): 7 mm
zone of inhibition at 50 µg/mL (Klebsiella pneumoniae [30]): 9 mm
zone of inhibition at 200 µg/mL (Aspergillus niger [31]; read-out: DIZ): 14 mm
zone of inhibition at 300 µg/mL (Rhizoctonia solani [32]; read-out: DIZ): 21 mm
zone of inhibition at 500 µg/mL (Aspergillus niger [33]; read-out: DIZ): 25 mm
MIC (Aspergillus flavus [34]): 40 µg/mL (≈ 110 µM)
MIC (Bacillus subtilis [35]): 30 µg/mL (≈ 82.4 µM)
zone of inhibition at 300 µg/mL (Aspergillus flavus [36]; read-out: DIZ): 15 mm
zone of inhibition at 300 µg/mL (Klebsiella pneumoniae [37]): 23 mm
zone of inhibition at 100 µg/mL (Staphylococcus aureus [38]): 10 mm
zone of inhibition at 200 µg/mL (Rhizoctonia solani [39]; read-out: DIZ): 16 mm
zone of inhibition at 200 µg/mL (Klebsiella pneumoniae [40]): 18 mm
zone of inhibition at 500 µg/mL (Klebsiella pneumoniae [41]): 32 mm
zone of inhibition at 200 µg/mL (Bacillus subtilis [42]): 11 mm
MIC (Escherichia coli [43]): 15 µg/mL (≈ 41.2 µM)
zone of inhibition at 100 µg/mL (Aspergillus flavus [44]; read-out: DIZ): 9 mm
MIC (Staphylococcus aureus [45]): 25 µg/mL (≈ 68.6 µM)
zone of inhibition at 50 µg/mL (Rhizoctonia solani [46]; read-out: DIZ): 7 mm
zone of inhibition at 500 µg/mL (Fusarium oxysporum [47]; read-out: DIZ): 29 mm
zone of inhibition at 500 µg/mL (Escherichia coli [48]): 30 mm

CN[C@@H]1[C@H](O[C@H]2[C@H](O[C@H]3[C@H](O)[C@@H](O)[C@H](N=C(N)N)[C@@H](O)[C@@H]3N=C(N)N)O[C@@H](C)[C@]2(O)C=O)O[C@@H](CO)[C@H](O)[C@H]1O [STREPTOMYCIN]
zone of inhibition at 50 µg/mL (Staphylococcus aureus [2]): 10 mm
zone of inhibition at 200 µg/mL (Staphylococcus aureus [3]): 19 mm
zone of inhibition at 200 µg/mL (Escherichia coli [4]): 23 mm
zone of inhibition at 100 µg/mL (Klebsiella pneumoniae [5]): 18 mm
zone of inhibition at 500 µg/mL (Bacillus subtilis [6]): 28 mm
zone of inhibition at 300 µg/mL (Staphylococcus aureus [7]): 22 mm
zone of inhibition at 50 µg/mL (Bacillus subtilis [10]): 9 mm
zone of inhibition at 500 µg/mL (Staphylococcus aureus [11]): 31 mm
zone of inhibition at 100 µg/mL (Bacillus subtilis [15]): 14 mm
zone of inhibition at 300 µg/mL (Escherichia coli [18]): 26 mm
MIC (Klebsiella pneumoniae [21]): 5 µg/mL (≈ 8.6 µM)
zone of inhibition at 50 µg/mL (Escherichia coli [22]): 12 mm
zone of inhibition at 100 µg/mL (Escherichia coli [23]): 17 mm
zone of inhibition at 300 µg/mL (Bacillus subtilis [24]): 20 mm
zone of inhibition at 50 µg/mL (Klebsiella pneumoniae [30]): 13 mm
MIC (Bacillus subtilis [35]): 20 µg/mL (≈ 34.4 µM)
zone of inhibition at 300 µg/mL (Klebsiella pneumoniae [37]): 28 mm
zone of inhibition at 100 µg/mL (Staphylococcus aureus [38]): 15 mm
zone of inhibition at 200 µg/mL (Klebsiella pneumoniae [40]): 24 mm
zone of inhibition at 500 µg/mL (Klebsiella pneumoniae [41]): 37 mm
zone of inhibition at 200 µg/mL (Bacillus subtilis [42]): 17 mm
MIC (Escherichia coli [43]): 5 µg/mL (≈ 8.6 µM)
MIC (Staphylococcus aureus [45]): 10 µg/mL (≈ 17.2 µM)
zone of inhibition at 500 µg/mL (Escherichia coli [48]): 36 mm

NYSTATIN
inhibition zone (IZ) (Rhizoctonia solani [1]): 20 mm
MIC (Rhizoctonia solani [8]): 15 µg/mL
inhibition zone (IZ) (Aspergillus flavus [9]): 16 mm
MIC (Aspergillus niger [12]): 20 µg/mL
inhibition zone (IZ) (Rhizoctonia solani [13]): 38 mm
inhibition zone (IZ) (Aspergillus flavus [14]): 32 mm
MIC (Fusarium oxysporum [16]): 15 µg/mL
inhibition zone (IZ) (Fusarium oxysporum [17]): 18 mm
inhibition zone (IZ) (Aspergillus flavus [19]): 11 mm
inhibition zone (IZ) (Aspergillus niger [20]): 23 mm
inhibition zone (IZ) (Fusarium oxysporum [25]): 21 mm
inhibition zone (IZ) (Aspergillus niger [26]): 14 mm
inhibition zone (IZ) (Aspergillus niger [27]): 11.2 mm
inhibition zone (IZ) (Fusarium oxysporum [28]): 29 mm
inhibition zone (IZ) (Fusarium oxysporum [29]): 15 mm
inhibition zone (IZ) (Aspergillus niger [31]): 16.6 mm
inhibition zone (IZ) (Rhizoctonia solani [32]): 30 mm
inhibition zone (IZ) (Aspergillus niger [33]): 34 mm
MIC (Aspergillus flavus [34]): 20 µg/mL
inhibition zone (IZ) (Aspergillus flavus [36]): 22 mm
inhibition zone (IZ) (Rhizoctonia solani [39]): 22 mm
inhibition zone (IZ) (Aspergillus flavus [44]): 13 mm
inhibition zone (IZ) (Rhizoctonia solani [46]): 16 mm
inhibition zone (IZ) (Fusarium oxysporum [47]): 37 mm
